Here are results for 31 compounds from ChEMBL document CHEMBL2150910, “Initial Optimization of a New Series of γ-Secretase Modulators Derived from a Triterpene Glycoside” (ACS Med Chem Lett, 2012).

A short description of test [1]: Inhibition of gamma-secretase-mediated amyloid beta-42 production in diluted 2B7 conditioned media after 5 hrs.
Test [2] can be described thus: Inhibition of gamma-secretase-mediated amyloid beta-40 production in diluted 2B7 conditioned media after 5 hrs.
The nature of test [3]: Inhibition of gamma-secretase-mediated amyloid beta-40 production in diluted 2B7 conditioned media at 20 uM after 5 hrs.
Test [4] is described as follows: Inhibition of gamma-secretase-mediated amyloid beta-40 production in diluted 2B7 conditioned media at 4 uM after 5 hrs.

The term IC50 denotes the concentration that gives 50% inhibition. The low end stands for inhibition by little substance, the high end for a need for much substance. Regarding `CC(=O)O[C@@H]([C@H]1C[C@@H](C)[C@H]2[C@H](O1)[C@H](O)[C@@]1(C)[C@@H]3CC[C@H]4C(C)(C)[C@@H](O[C@H]5CN(C(=O)C6(C)COC6)CCO5)CC[C@@]45C[C@@]35CC[C@]21C)C(C)(C)O`, the concentration for half-maximal inhibition (IC50) was 80 nM in test [1] and 8 µM in test [2].

Usually inhibition stands for the share of the control response that was lost under treatment. A low value points to little suppression. Consider `CC(=O)O[C@@H]([C@H]1C[C@@H](C)[C@H]2[C@H](O1)[C@H](O)[C@@]1(C)[C@@H]3CC[C@H]4C(C)(C)[C@@H](O[C@H]5CN(S(C)(=O)=O)CCO5)CC[C@@]45C[C@@]35CC[C@]21C)C(C)(C)O`, for which, in test [1], half-maximal inhibition (IC50) was put at 80 nM. Besides, the inhibition in test [3] worked out at 40%.

`CC(=O)O[C@@H]([C@H]1C[C@@H](C)[C@H]2[C@H](O1)[C@H](O)[C@@]1(C)[C@@H]3CC[C@H]4C(C)(C)[C@@H](O[C@H]5CN(Cc6ccccc6)CCO5)CC[C@@]45C[C@@]35CC[C@]21C)C(C)(C)O` yielded a half-inhibitory concentration (IC50) in test [1] of 2000 nM. The same compound gave an inhibition in test [4] of 4%.

`COCCN1CCO[C@@H](O[C@H]2CC[C@]34C[C@]35CC[C@]3(C)[C@@H]6[C@H](O[C@@H]([C@H](OC(C)=O)C(C)(C)O)C[C@H]6C)[C@H](O)[C@@]3(C)[C@@H]5CC[C@H]4C2(C)C)C1`: the results for the IC50 in test [1] and in test [2] were 210 nM and 7.6 µM, respectively.

Take `CC(=O)O[C@@H]([C@H]1C[C@@H](C)[C@H]2[C@H](O1)[C@H](O)[C@@]1(C)[C@@H]3CC[C@H]4C(C)(C)[C@@H](O[C@H]5CN(CC(C)(C)O)CCO5)CC[C@@]45C[C@@]35CC[C@]21C)C(C)(C)O`: the concentration for half-maximal inhibition (IC50) in test [1] was 230 nM; in test [2], 9.4 µM.

Regarding `CC(=O)O[C@@H]([C@H]1C[C@@H](C)[C@H]2[C@H](O1)[C@H](O)[C@@]1(C)[C@@H]3CC[C@H]4C(C)(C)[C@@H](O[C@H]5CN([C@H]6CCNC6=O)CCO5)CC[C@@]45C[C@@]35CC[C@]21C)C(C)(C)O`, the IC50 worked out at 200 nM in test [1] and 7 µM in test [2].

As to `CC(=O)O[C@@H]([C@H]1C[C@@H](C)[C@H]2[C@H](O1)[C@H](O)[C@@]1(C)[C@@H]3CC[C@H]4C(C)(C)[C@@H](O[C@H]5CN(C)CCO5)CC[C@@]45C[C@@]35CC[C@]21C)C(C)(C)O`, the 50% inhibitory concentration (IC50) in test [1] came out at 130 nM; in test [2], 3.4 µM.

Regarding `CC(=O)O[C@@H]([C@H]1C[C@@H](C)[C@H]2[C@H](O1)[C@H](O)[C@@]1(C)[C@@H]3CC[C@H]4C(C)(C)[C@@H](O[C@H]5CN(C(C)=O)CCO5)CC[C@@]45C[C@@]35CC[C@]21C)C(C)(C)O`, the IC50 was determined as 90 nM in test [1] and 13.4 µM in test [2].

In the case of `C[C@@H]1C[C@H]([C@H](O)C(C)(C)O)O[C@H]2[C@H]1[C@@]1(C)CC[C@@]34C[C@@]35CC[C@H](O)C(C)(C)[C@@H]5CC[C@H]4[C@]1(C)[C@H]2O`, the 50% inhibitory concentration (IC50) in test [1] is greater than 10000 nM.

`CC(=O)O[C@@H]([C@H]1C[C@@H](C)[C@H]2[C@H](O1)[C@H](O)[C@@]1(C)[C@@H]3CC[C@H]4C(C)(C)[C@@H](O[C@H]5CN(CC(F)(F)F)CCO5)CC[C@@]45C[C@@]35CC[C@]21C)C(C)(C)O`: in test [1], 1190 nM corresponded to half-maximal inhibition (IC50). In addition, the inhibition in test [3] came to 47%.

Consider `CCCN1CCO[C@@H](O[C@H]2CC[C@]34C[C@]35CC[C@]3(C)[C@@H]6[C@H](O[C@@H]([C@H](OC(C)=O)C(C)(C)O)C[C@H]6C)[C@H](O)[C@@]3(C)[C@@H]5CC[C@H]4C2(C)C)C1`, for which the figures for the IC50 in test [1] and in test [2] were 680 nM and 15.9 µM, respectively.

With `CC(=O)O[C@@H]([C@H]1C[C@@H](C)[C@H]2[C@H](O1)[C@H](O)[C@@]1(C)[C@@H]3CC[C@H]4C(C)(C)[C@@H](O[C@H]5CN(CC(N)=O)CCO5)CC[C@@]45C[C@@]35CC[C@]21C)C(C)(C)O`, the IC50 stood at 150 nM in test [1] and 7.8 µM in test [2].

Turning to `CC(=O)O[C@@H]([C@H]1C[C@@H](C)[C@H]2[C@H](O1)[C@H](O)[C@@]1(C)[C@@H]3CC[C@H]4C(C)(C)[C@@H](O[C@@H](CN(C)C)OCCN(C)C)CC[C@@]45C[C@@]35CC[C@]21C)C(C)(C)O`, in test [1], the concentration for half-maximal inhibition (IC50) was determined as 2400 nM.

The compound `CC(=O)O[C@@H]([C@H]1C[C@@H](C)[C@H]2[C@H](O1)[C@H](O)[C@@]1(C)[C@@H]3CC[C@H]4C(C)(C)[C@@H](O)CC[C@@]45C[C@@]35CC[C@]21C)C(C)(C)O` came in with an IC50 in test [1] of 600 nM.

On to `CC(=O)O[C@@H]([C@H]1C[C@@H](C)[C@H]2[C@H](O1)[C@H](O)[C@@]1(C)[C@@H]3CC[C@H]4C(C)(C)[C@@H](O[C@H]5CN([C@@H]6CCNC6=O)CCO5)CC[C@@]45C[C@@]35CC[C@]21C)C(C)(C)O`, for which it took 120 nM to reach half-maximal inhibition in test [1] (IC50). The compound also returned an inhibition in test [3] of 44%.

In test [1], `C[C@@H]1C[C@H]([C@H](O)C(C)(C)O)O[C@H]2[C@H]1[C@@]1(C)CC[C@@]34C[C@@]35CC[C@H](O[C@@H]3OC[C@@H](O)[C@H](O)[C@H]3O)C(C)(C)[C@@H]5CC[C@H]4[C@]1(C)[C@H]2O` displayed a concentration for half-maximal inhibition (IC50) of 3100 nM.

Consider `CC(=O)O[C@@H]([C@H]1C[C@@H](C)[C@H]2[C@H](O1)[C@H](O)[C@@]1(C)[C@@H]3CC[C@H]4C(C)(C)[C@@H](O[C@H]5CN(C(=O)c6ccno6)CCO5)CC[C@@]45C[C@@]35CC[C@]21C)C(C)(C)O`, for which the IC50 in test [1] came out at 70 nM; in test [2] it was 4.8 µM.

In turn, `CC(=O)O[C@@H]([C@H]1C[C@@H](C)[C@H]2[C@H](O1)[C@H](O)[C@@]1(C)[C@@H]3CC[C@H]4C(C)(C)[C@@H](O[C@H]5CN(C(=O)CC6CC6)CCO5)CC[C@@]45C[C@@]35CC[C@]21C)C(C)(C)O` gave an IC50 in test [1] of 130 nM. The compound also showed an inhibition in test [3] of 38%.

Compound `CC(=O)O[C@@H]([C@H]1C[C@@H](C)[C@H]2[C@H](O1)[C@H](O)[C@@]1(C)[C@@H]3CC[C@H]4C(C)(C)[C@@H](O[C@H]5CN(C(=O)N(C)C)CCO5)CC[C@@]45C[C@@]35CC[C@]21C)C(C)(C)O` returned a half-maximal inhibitory concentration (IC50) in test [1] of 60 nM. The inhibition in test [3] turned out to be 40%.

As to `CC(=O)O[C@@H]([C@H]1C[C@@H](C)[C@H]2[C@H](O1)[C@H](O)[C@@]1(C)[C@@H]3CC[C@H]4C(C)(C)[C@@H](O[C@H]5CN(C6CC6)CCO5)CC[C@@]45C[C@@]35CC[C@]21C)C(C)(C)O`, in test [1], the midpoint of inhibition, the IC50, lay at 1000 nM. In test [3], this compound gave an inhibition of 35%.

With `CC(=O)O[C@@H]([C@H]1C[C@@H](C)[C@H]2[C@H](O1)C(=O)[C@@]1(C)[C@@H]3CC[C@H]4C(C)(C)[C@@H](O[C@@H]5OC[C@@H](O)[C@H](O)[C@H]5O)CC[C@@]45C[C@@]35CC[C@]21C)C(C)(C)O`, in test [1], the IC50 came out at 600 nM.

As to `CC(=O)O[C@@H]([C@H]1C[C@@H](C)[C@H]2[C@H](O1)[C@H](O)[C@@]1(C)[C@@H]3CC[C@H]4C(C)(C)[C@@H](O[C@H]5CN(C6CCOCC6)CCO5)CC[C@@]45C[C@@]35CC[C@]21C)C(C)(C)O`, in test [1], the concentration for half-maximal inhibition (IC50) is 180 nM. Moreover, in test [4], the inhibition turned out to be 38%.

On to `CC(=O)O[C@@H]([C@H]1C[C@@H](C)[C@H]2[C@H](O1)[C@H](O)[C@@]1(C)[C@@H]3CC[C@H]4C(C)(C)[C@@H](O[C@H]5CN(CCC(=O)O)CCO5)CC[C@@]45C[C@@]35CC[C@]21C)C(C)(C)O`, for which the IC50 in test [1] was determined as 490 nM; in test [2], 18.8 µM.

For `CCN1CCO[C@@H](O[C@H]2CC[C@]34C[C@]35CC[C@]3(C)[C@@H]6[C@H](O[C@@H]([C@H](OC(C)=O)C(C)(C)O)C[C@H]6C)[C@H](O)[C@@]3(C)[C@@H]5CC[C@H]4C2(C)C)C1`, in test [1], the IC50 is 190 nM. In addition, the inhibition in test [4] came out at 42%.

In test [1], `CC(=O)O[C@@H]([C@H]1C[C@@H](C)[C@H]2[C@H](O1)[C@H](O)[C@@]1(C)[C@@H]3CC[C@H]4C(C)(C)[C@@H](O[C@@H](CO)OCCO)CC[C@@]45C[C@@]35CC[C@]21C)C(C)(C)O` displayed an IC50 of 100 nM.

As for `CC(=O)O[C@@H]([C@H]1C[C@@H](C)[C@H]2[C@H](O1)[C@H](O)[C@@]1(C)[C@@H]3CC[C@H]4C(C)(C)[C@@H](O[C@H]5CN(CCN6CCOCC6)CCO5)CC[C@@]45C[C@@]35CC[C@]21C)C(C)(C)O`, in test [1], the half-maximal inhibitory concentration (IC50) amounted to 160 nM. This compound also yielded an inhibition in test [4] of 49%.

Turning to `CC(=O)O[C@@H]([C@H]1C[C@@H](C)[C@H]2[C@H](O1)[C@H](O)[C@@]1(C)[C@@H]3CC[C@H]4C(C)(C)[C@@H](O[C@H]5CN(Cc6ncc[nH]6)CCO5)CC[C@@]45C[C@@]35CC[C@]21C)C(C)(C)O`, the half-inhibitory concentration (IC50) in test [1] is 120 nM. Besides, the inhibition in test [4] is 38%.

`CC(=O)O[C@@H]([C@H]1C[C@@H](C)[C@H]2[C@H](O1)[C@H](O)[C@@]1(C)[C@@H]3CC[C@H]4C(C)(C)[C@@H](O[C@H]5CN(C(=O)c6cn(C)cn6)CCO5)CC[C@@]45C[C@@]35CC[C@]21C)C(C)(C)O` yielded an IC50 in test [1] of 130 nM. Besides, in test [3], the inhibition came out at 44%.

`CC(=O)O[C@@H]([C@H]1C[C@@H](C)[C@H]2[C@H](O1)[C@H](O)[C@@]1(C)[C@@H]3CC[C@H]4C(C)(C)[C@@H](O[C@H]5CN(CC(=O)N(C)C)CCO5)CC[C@@]45C[C@@]35CC[C@]21C)C(C)(C)O`: the IC50 stood at 140 nM in test [1] and 9 µM in test [2].

As to `CC(=O)O[C@@H]([C@H]1C[C@@H](C)[C@H]2[C@H](O1)[C@H](O)[C@@]1(C)[C@@H]3CC[C@H]4C(C)(C)[C@@H](O[C@H]5CN(CC(=O)O)CCO5)CC[C@@]45C[C@@]35CC[C@]21C)C(C)(C)O`, the IC50 came to 370 nM in test [1] and 14 µM in test [2].

In test [1], `CC(=O)OC(C)(C)[C@H]1O[C@@]23O[C@@H]1C[C@@H](C)C2[C@@]1(C)CC[C@@]24C[C@@]25CC[C@H](O[C@@H]2OC[C@@H](O)[C@H](O)[C@H]2O)C(C)(C)[C@@H]5CC[C@H]4[C@]1(C)[C@H]3O` (stereo not given in full) returned a half-inhibitory concentration (IC50) of 3000 nM.
